# Test results as given in patent EP4273147A1, “SUBSTITUTED SPIROLACTAMS, SALTS THEREOF AND THEIR USE AS HERBICIDALLY ACTIVE SUBSTANCES” (Bayer Aktiengesellschaft, priority 2022, dated 2023).
# Key:
# ECHCG [1] = test: Herbicidal pre-emergence action (Table A2); assay type: in vivo, Echinochloa crus-galli; settings: visual grading after ca. 3 weeks
# In short: (§1)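 Seeds of monocot and dicot weeds were sown in pots of sandy loam and covered with soil. Each pot held a double sowing: one monocotyledonous plus one dicotyledonous species.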
# LOLRI [2] = test: Herbicidal pre-emergence action (Table A3); assay type: in vivo, Lolium rigidum; settings: application rate 320 g/ha; visual grading after ca. 3 weeks
# In short: as §1
# MATIN [3] = test: Herbicidal pre-emergence action (Table A4); assay type: in vivo, Matricaria inodora; settings: application rate 1280 g/ha; visual grading after ca. 3 weeks
# In short: as §1
# SETVI [4] = test: Herbicidal pre-emergence action (Table A5); assay type: in vivo, Setaria viridis; settings: application rate 320 g/ha; visual grading after ca. 3 weeks
# In short: as §1
# STEME [5] = test: Herbicidal pre-emergence action (Table A6); assay type: in vivo, Stellaria media; settings: application rate 320 g/ha; visual grading after ca. 3 weeks
# In short: as §1
# POAAN [6] = test: Herbicidal pre-emergence action (Table A7); assay type: in vivo, Poa annua; settings: application rate 320 g/ha; visual grading after ca. 3 weeks
# In short: as §1
# KCHSC = test: Herbicidal pre-emergence action (Table A10); assay type: in vivo, Kochia scoparia; settings: application rate 1280 g/ha; visual grading after ca. 3 weeks
# In short: as §1
# DIGSA [7] = test: Herbicidal pre-emergence action (Table A12); assay type: in vivo, Digitaria sanguinalis; settings: application rate 320 g/ha; visual grading after ca. 3 weeks
# In short: as §1
# DIGSA [8] = test: Herbicidal post-emergence action (Table B12); assay type: in vivo, Digitaria sanguinalis; settings: application rate 1280 g/ha
# Protocol: (§2) Seeds of mono- and dicotyledonous weed plants were placed in plastic pots in sandy loam soil (doubly sown with in each case one species of mono- or dicotyledonous weed plants per pot), covered with soil and cultivated in a greenhouse under controlled growth conditions. 2 to 3 weeks after sowing, the test plants were treated at the one-leaf stage. […] After the test plants had been kept in the greenhouse under optimum growth conditions for about 3 weeks, the activity of the preparations was rated visually in comparison to untreated controls. For example, 100% activity = the plants have died, 0% activity = like control plants.
# AMARE [9] = test: Herbicidal pre-emergence action (Table A8); assay type: in vivo, Amaranthus retroflexus; settings: application rate 1280 g/ha; visual grading after ca. 3 weeks vs untreated controls (100% = plants have died off, 0% = as control plants)
# In short: as §1
# ABUTH = test: Herbicidal post-emergence action (Table B1); assay type: in vivo, Abutilon theophrasti; settings: application rate 1280 g/ha; treated at one-leaf stage; rated visually after about 3 weeks vs untreated controls (100% = plants have died, 0% = like control plants)
# In short: (§3)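 Visual rating against untreated plants (0% = as control, 100% = dead) made roughly 3 weeks after application. Weed species were grown in sandy loam pots under greenhouse conditions and sprayed at the one-leaf stage, 2–3 weeks post-sowing.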
# MATIN [10] = test: Herbicidal post-emergence action (Table B6); assay type: in vivo, Matricaria inodora; settings: application rate 320 g/ha; rated visually after about 3 weeks
# In short: as §3
# POAAN [11] = test: Herbicidal post-emergence action (Table B7); assay type: in vivo, Poa annua; settings: application rate 320 g/ha
# In short: as §3
# STEME [12] = test: Herbicidal post-emergence action (Table B9); assay type: in vivo, Stellaria media; settings: application rate 1280 g/ha
# Protocol: as §2
# AMARE [13] = test: Herbicidal post-emergence action (Table B11); assay type: in vivo, Amaranthus retroflexus; settings: application rate 1280 g/ha
# In short: as §3
# ALOMY [14] = test: Herbicidal pre-emergence action, section C (Table C2); assay type: in vivo, Alopecurus myosuroides; settings: application rate 80 g/ha; visual grading after ca. 3 weeks
# DIGSA [15] = test: Herbicidal pre-emergence action, section C (Table C5); assay type: in vivo, Digitaria sanguinalis; settings: application rate 80 g/ha; visual grading after ca. 3 weeks
# Source text: (§5) Seeds of mono- and dicotyledonous weed plants and crop plants were sown, in plastic or organic planting pots, in sandy loam and covered with soil. The compounds according to the invention, formulated in the form of wettable powders (WP) or as emulsifiable concentrates (EC), were applied to the surface of the covering soil as aqueous suspension or emulsion, with the addition of 0.5% of an additive, at an application rate of 600 1 of water/ha (converted). Following treatment, the pots were placed in a greenhouse and kept under optimum growth conditions for the test plants.
# ECHCG [16] = test: Herbicidal pre-emergence action, section C (Table C6); assay type: in vivo, Echinochloa crus-galli; settings: application rate 80 g/ha; visual grading after ca. 3 weeks
# LOLRI [17] = test: Herbicidal pre-emergence action, section C (Table C7); assay type: in vivo, Lolium rigidum; settings: application rate 320 g/ha; visual grading after ca. 3 weeks
# SETVI [18] = test: Herbicidal pre-emergence action, section C (Table C10); assay type: in vivo, Setaria viridis; settings: application rate 320 g/ha; visual grading after ca. 3 weeks
# VERPE [19] = test: Herbicidal pre-emergence action, section C (Table C11); assay type: in vivo, Veronica persica; settings: application rate 80 g/ha; visual grading after ca. 3 weeks
# Source text: as §5
# VIOTR [20] = test: Herbicidal pre-emergence action, section C (Table C12); assay type: in vivo, Viola tricolor; settings: application rate 320 g/ha; visual grading after ca. 3 weeks
# ZEAMX [21] = test: Pre-emergence effects on crop plants (Table D1); assay type: in vivo, Zea mays; settings: crop plant; application rate 320 g/ha; visual grading after ca. 3 weeks
# TRZAS [22] = test: Pre-emergence effects on crop plants (Table D2); assay type: in vivo, Triticum aestivum; settings: crop plant; application rate 80 g/ha; visual grading after ca. 3 weeks
# Source text: Seeds of mono- and dicotyledonous weed plants and crop plants were sown, in plastic or organic planting pots, in sandy loam and covered with soil. The compounds according to the invention, formulated in the form of wettable powders (WP) or as emulsifiable concentrates (EC), were applied to the surface of the covering soil as aqueous suspension or emulsion, with the addition of 0.5% of an additive, at an application rate of 600 1 of water/ha (converted).
# Following treatment, the pots were placed in a greenhouse and kept under optimum growth conditions for the test plants.
# GLXMA = test: Pre-emergence effects on crop plants (Table D4); assay type: in vivo, Glycine max; settings: crop plant; application rate 320 g/ha; visual grading after ca. 3 weeks
# BRSNW [23] = test: Pre-emergence effects on crop plants (Table D5); assay type: in vivo, Brassica napus; settings: crop plant; application rate 80 g/ha; visual grading after ca. 3 weeks
# ALOMY [24] = test: Herbicidal post-emergence action, section E (Table E2); assay type: in vivo, Alopecurus myosuroides; settings: application rate 320 g/ha; assessed visually after ca. 3 weeks
# Source text: (§4) 2 to 3 weeks after sowing, the test plants were sprayed in the single-leaf stage.
# ECHCG [25] = test: Herbicidal post-emergence action, section E (Table E5); assay type: in vivo, Echinochloa crus-galli; settings: application rate 320 g/ha; assessed visually after ca. 3 weeks
# Source text: as §4
# VERPE [26] = test: Herbicidal post-emergence action, section E (Table E9); assay type: in vivo, Veronica persica; settings: application rate 320 g/ha; assessed visually after ca. 3 weeks
# Source text: as §4
# VIOTR [27] = test: Herbicidal post-emergence action, section E (Table E10); assay type: in vivo, Viola tricolor; settings: application rate 320 g/ha; assessed visually after ca. 3 weeks
# Source text: as §4
# ZEAMX [28] = test: Post-emergence effects on crop plants (Table F1); assay type: in vivo, Zea mays; settings: application rate 320 g/ha, crop plant ZEAMX
# Source text: as §4
# TRZAS [29] = test: Post-emergence effects on crop plants (Table F2); assay type: in vivo, Triticum aestivum; settings: application rate 320 g/ha, crop plant TRZAS
# Source text: as §4
# ORYZA = test: Post-emergence effects on crop plants (Table F3); assay type: in vivo, Oryza sativa; settings: application rate 320 g/ha, crop plant ORYZA
# Source text: as §4
# BRSNW [30] = test: Post-emergence effects on crop plants (Table F5); assay type: in vivo, Brassica napus; settings: application rate 320 g/ha, crop plant BRSNW
# Source text: as §4
smiles,measurement,setting,value
O=C1N(Cc2ccccc2)CCC12CCCN(Cc1c(F)cccc1F)C2=O (racemic) [I-089],pre-emergence activity against ECHCG,ECHCG [1]; application rate 320 g/ha,100%
same,pre-emergence activity against LOLRI,LOLRI [2],100%
same,pre-emergence activity against MATIN,MATIN [3],90%
same,pre-emergence activity against SETVI,SETVI [4],100%
same,pre-emergence activity against STEME,STEME [5],90%
same,pre-emergence activity against POAAN,POAAN [6],100%
same,pre-emergence activity against KCHSC,KCHSC,90%
same,pre-emergence activity against DIGSA,DIGSA [7],90%
same,post-emergence activity against DIGSA,DIGSA [8],90%
O=C1N(Cc2c(F)ccc(F)c2F)CCCC12CCCN(Cc1c(F)ccc(F)c1F)C2=O (racemic) [I-013],pre-emergence activity against ECHCG,ECHCG [1]; application rate 1280 g/ha,100%
same,pre-emergence activity against LOLRI,LOLRI [2],100%
same,pre-emergence activity against MATIN,MATIN [3],90%
same,pre-emergence activity against SETVI,SETVI [4],100%
same,pre-emergence activity against STEME,STEME [5],100%
same,pre-emergence activity against POAAN,POAAN [6],100%
same,pre-emergence activity against AMARE,AMARE [9],90%
same,post-emergence activity against ABUTH,ABUTH,90%
same,post-emergence activity against MATIN,MATIN [10],90%
same,post-emergence activity against POAAN,POAAN [11],90%
same,post-emergence activity against STEME,STEME [12],90%
same,post-emergence activity against AMARE,AMARE [13],90%
same,pre-emergence activity against ALOMY,ALOMY [14],80%
same,pre-emergence activity against DIGSA,DIGSA [15],100%
same,pre-emergence activity against ECHCG,ECHCG [16],100%
same,pre-emergence activity against LOLRI,LOLRI [17],90%
same,pre-emergence activity against SETVI,SETVI [18],90%
same,pre-emergence activity against VERPE,VERPE [19],90%
same,pre-emergence activity against VIOTR,VIOTR [20],80%
same,pre-emergence activity against ZEAMX,ZEAMX [21],10%
same,pre-emergence activity against TRZAS,TRZAS [22],20%
same,pre-emergence activity against GLXMA,GLXMA,0%
same,pre-emergence activity against BRSNW,BRSNW [23],10%
same,post-emergence activity against ALOMY,ALOMY [24],80%
same,post-emergence activity against ECHCG,ECHCG [25],80%
same,post-emergence activity against VERPE,VERPE [26],80%
same,post-emergence activity against VIOTR,VIOTR [27],90%
same,post-emergence activity against ZEAMX,ZEAMX [28],10%
same,post-emergence activity against TRZAS,TRZAS [29],0%
same,post-emergence activity against ORYZA,ORYZA,0%
same,post-emergence activity against BRSNW,BRSNW [30],0%
